Results: patent US20080319000A1, “Use of 3,1IB-Cis-Dihydrotetrabenazine for the Treatment of Symptoms of Huntingtons Disease” (CAMBRIDGE LABORATORIES (IRELAND) LIMITED, priority 2005, published 2008)

Columns and labels:
dopamine receptor = assay: Dopamine receptor binding
[1] = target: 5-hydroxytryptamine isoform 1d (Homo sapiens, UniProt P28221); assay: 5-hydroxytryptamine 1d inhibition; format: binding
[2] = target: T1, catechol O-methyl transferase (COMT) (Homo sapiens, UniProt P21964); assay: COMT inhibition; format: biochemical
T1 sequence (P21964 1-271): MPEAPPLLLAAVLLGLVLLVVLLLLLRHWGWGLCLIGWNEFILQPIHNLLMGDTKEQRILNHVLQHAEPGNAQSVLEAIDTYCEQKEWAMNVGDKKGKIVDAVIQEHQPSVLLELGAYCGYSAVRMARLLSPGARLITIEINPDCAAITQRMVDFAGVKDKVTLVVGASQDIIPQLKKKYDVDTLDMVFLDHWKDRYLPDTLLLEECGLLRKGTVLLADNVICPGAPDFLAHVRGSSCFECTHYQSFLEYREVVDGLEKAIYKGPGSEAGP

[3] = target: 5-hydroxytryptamine isoform 1b (Homo sapiens, UniProt P28222); assay: 5-hydroxytryptamine 1b inhibition; format: binding
Sequence of 5-hydroxytryptamine isoform 1b (P28222 whole entry, canonical isoform): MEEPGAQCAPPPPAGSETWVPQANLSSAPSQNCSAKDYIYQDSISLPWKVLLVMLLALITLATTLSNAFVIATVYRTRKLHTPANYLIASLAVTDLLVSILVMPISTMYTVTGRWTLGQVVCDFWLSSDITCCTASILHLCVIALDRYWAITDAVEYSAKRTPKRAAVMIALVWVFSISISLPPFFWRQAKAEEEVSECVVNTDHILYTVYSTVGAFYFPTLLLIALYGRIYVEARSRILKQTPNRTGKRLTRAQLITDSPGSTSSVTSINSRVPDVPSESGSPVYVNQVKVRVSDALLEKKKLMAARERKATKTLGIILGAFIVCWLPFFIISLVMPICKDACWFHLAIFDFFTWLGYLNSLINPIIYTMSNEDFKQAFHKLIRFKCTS

adrenergic receptors = assay: Adrenergic receptor inhibition; format: binding

Sequence of 5-hydroxytryptamine isoform 1d (P28221 whole entry, canonical isoform): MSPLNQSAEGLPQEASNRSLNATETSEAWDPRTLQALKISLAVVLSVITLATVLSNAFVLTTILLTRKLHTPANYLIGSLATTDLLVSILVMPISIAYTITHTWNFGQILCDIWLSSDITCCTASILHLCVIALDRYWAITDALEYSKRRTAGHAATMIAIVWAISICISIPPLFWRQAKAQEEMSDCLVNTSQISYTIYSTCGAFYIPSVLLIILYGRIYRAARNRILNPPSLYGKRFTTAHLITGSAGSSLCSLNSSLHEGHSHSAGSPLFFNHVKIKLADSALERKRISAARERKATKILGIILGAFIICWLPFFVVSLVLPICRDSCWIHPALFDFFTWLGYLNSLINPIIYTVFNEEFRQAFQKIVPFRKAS

COc1cc2c(cc1OC)[C@H]1C[C@H](O)[C@@H](CC(C)C)CN1CC2 (single isomer, unassigned) [Isomer B]
dopamine receptor binding activity (dopamine receptor): only weak or non-existent | inhibitory activity against 5-hydroxytryptamine isoform 1d [1]: no inhibitory activity | inhibitory activity against catechol O-methyl transferase (COMT) [2]: no inhibitory activity | inhibitory activity against 5-hydroxytryptamine isoform 1b [3]: no inhibitory activity | inhibition of the adrenergic receptors (adrenergic receptors): either weakly active or inactive
